Where “and” joins values, the source holds several entries; their conditions need not be identical. Equal values may be shown once. Toxic doses and inconclusive results are not listed.
Test system: CD2F1 mice, L1210 leukemia ip, survival T/C
Test: NCI In Vivo Anticancer Drug Screen. Data for tumor model L1210 Leukemia (intraperitoneal) in CD2F1 (CDF1) mice
Conditions: higher = longer survival
Summary of the method: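 Read-out first: treated-group measurement over vehicle-control measurement, expressed as a ratio. Animals bore a transplanted tumor line and were dosed with compound or vehicle.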

`CC(=O)NC1=C(N2CC2)C(=O)C(NC(C)=O)=C(N2CC2)C1=O` was tested, and the T/C (endpoint: mean survival time, dose: 0.5 mg/kg/injection, schedule: Q01DX009 (ip), vehicle: saline) was 164 % of control and 181 % of control, the T/C (endpoint: mean survival time, dose: 1.0 mg/kg/injection, schedule: Q01DX007 (ip), vehicle: saline) was 190 % of control and the T/C (endpoint: mean survival time, dose: 1.0 mg/kg/injection, schedule: Q01DX009 (ip), vehicle: saline) was 213 % of control and 230 % of control and 261 % of control. The T/C (endpoint: mean survival time, dose: 1.0 mg/kg/injection, schedule: Q03DX003 (ip), vehicle: saline) was 162 % of control, the T/C (endpoint: mean survival time, dose: 2.0 mg/kg/injection, schedule: Q01DX007 (ip), vehicle: saline) was 105 % of control and the T/C (endpoint: mean survival time, dose: 2.0 mg/kg/injection, schedule: Q01DX009 (ip), vehicle: saline) was 253 % of control and 100 % of control and 101 % of control. The T/C (endpoint: mean survival time, dose: 2.0 mg/kg/injection, schedule: Q03DX003 (ip), vehicle: saline) was 198 % of control, the T/C (endpoint: mean survival time, dose: 2.0 mg/kg/injection, schedule: Q04DX003 (ip), vehicle: saline) was 191 % of control and the T/C (endpoint: mean survival time, dose: 4.0 mg/kg/injection, schedule: Q03DX003 (ip), vehicle: saline) was 107 % of control. For the same compound, the T/C (endpoint: mean survival time, dose: 4.0 mg/kg/injection, schedule: Q04DX003 (ip), vehicle: saline) was 217 % of control.

`Cn1c2ccccc2c2ccc3c(c21)C(=O)C=CC3=O` was tested, and the T/C (endpoint: median survival time, dose: 12.5 mg/kg/injection, schedule: Q01DX009 (ip), vehicle: Klucel (hydroxypropylcellulose) (HPC)) was 100 % of control, the T/C (endpoint: median survival time, dose: 25.0 mg/kg/injection, schedule: Q01DX009 (ip), vehicle: Klucel (hydroxypropylcellulose) (HPC)) was 102 % of control and the T/C (endpoint: median survival time, dose: 50.0 mg/kg/injection, schedule: Q01DX009 (ip), vehicle: Klucel (hydroxypropylcellulose) (HPC)) was 109 % of control.

For `COc1cc(OC)c(NC(=O)OCCON2CCNC2=O)cc1Cl`, the T/C (endpoint: mean survival time, dose: 50.0 mg/kg/injection, schedule: Q01DX009 (ip), vehicle: saline with Tween-80) was 90 % of control, the T/C (endpoint: mean survival time, dose: 100.0 mg/kg/injection, schedule: Q01DX009 (ip), vehicle: saline with Tween-80) was 90 % of control and the T/C (endpoint: mean survival time, dose: 200.0 mg/kg/injection, schedule: Q01DX009 (ip), vehicle: saline with Tween-80) was 97 % of control.

`OCC1OC(n2cnc3c([Se]Cc4ccccn4)ncnc32)C(O)C1O` (configuration not stated) was tested, and the T/C (endpoint: mean survival time, dose: 3.12 mg/kg/injection, schedule: Q01DX009 (ip), vehicle: saline) was 102 % of control, the T/C (endpoint: mean survival time, dose: 6.25 mg/kg/injection, schedule: Q01DX009 (ip), vehicle: saline) was 113 % of control and the T/C (endpoint: mean survival time, dose: 12.5 mg/kg/injection, schedule: Q01DX005 (ip), vehicle: saline) was 100 % of control. For the same compound, the T/C (endpoint: mean survival time, dose: 12.5 mg/kg/injection, schedule: Q01DX009 (ip), vehicle: saline) was 111 % of control.

With `CC1=C(c2ccccc2)OS(=O)(=O)NC1=O` the T/C (endpoint: mean survival time, dose: 12.5 mg/kg/injection, schedule: Q01DX009 (ip), vehicle: water) was 93 % of control, the T/C (endpoint: mean survival time, dose: 25.0 mg/kg/injection, schedule: Q01DX009 (ip), vehicle: water) was 91 % of control and the T/C (endpoint: mean survival time, dose: 50.0 mg/kg/injection, schedule: Q01DX009 (ip), vehicle: water) was 93 % of control. For the same compound, the T/C (endpoint: mean survival time, dose: 100.0 mg/kg/injection, schedule: Q01DX009 (ip), vehicle: water) was 93 % of control and the T/C (endpoint: mean survival time, dose: 200.0 mg/kg/injection, schedule: Q01DX009 (ip), vehicle: water) was 88 % of control.

In the case of `CCC(Cl)[N+](=O)[O-]` (configuration not stated), the T/C (endpoint: mean survival time, dose: 50.0 mg/kg/injection, schedule: Q04DX003 (ip), vehicle: Klucel (hydroxypropylcellulose) (HPC)) is reported as 97 % of control, the T/C (endpoint: mean survival time, dose: 100.0 mg/kg/injection, schedule: Q04DX003 (ip), vehicle: Klucel (hydroxypropylcellulose) (HPC)) is reported as 107 % of control and the T/C (endpoint: mean survival time, dose: 200.0 mg/kg/injection, schedule: Q04DX003 (ip), vehicle: Klucel (hydroxypropylcellulose) (HPC)) is reported as 101 % of control.

In the case of `CC1CN1CC(O)C(O)CN1CC1C` (configuration not stated), the T/C (endpoint: mean survival time, dose: 2.5 mg/kg/injection, schedule: Q01DX009 (ip), vehicle: saline) is reported as 115 % of control.

With `CCCCCCCC/C=C\CCCCCCCC(=O)OCCCCCC` the T/C (endpoint: mean survival time, dose: 100.0 mg/kg/injection, schedule: Q04DX002 (ip), vehicle: saline with Tween-80) was 91 % of control, the T/C (endpoint: mean survival time, dose: 200.0 mg/kg/injection, schedule: Q04DX002 (ip), vehicle: saline with Tween-80) was 102 % of control and the T/C (endpoint: mean survival time, dose: 400.0 mg/kg/injection, schedule: Q04DX002 (ip), vehicle: saline with Tween-80) was 95 % of control.

For `C=COC(=O)C(Cc1ccccc1)NC(=O)OCc1ccccc1` (configuration not stated), the T/C (endpoint: median survival time, dose: 25.0 mg/kg/injection, schedule: Q01DX009 (ip), vehicle: saline with Tween-80) was 96 % of control, the T/C (endpoint: median survival time, dose: 50.0 mg/kg/injection, schedule: Q01DX009 (ip), vehicle: saline with Tween-80) was 96 % of control and the T/C (endpoint: median survival time, dose: 100.0 mg/kg/injection, schedule: Q01DX009 (ip), vehicle: saline with Tween-80) was 93 % of control. The T/C (endpoint: median survival time, dose: 200.0 mg/kg/injection, schedule: Q01DX009 (ip), vehicle: saline with Tween-80) was 93 % of control and the T/C (endpoint: median survival time, dose: 400.0 mg/kg/injection, schedule: Q01DX009 (ip), vehicle: saline with Tween-80) was 101 % of control.
